Laboratory results: patent US11219607B2, “Methods for suppressing cancer-related cachexia” (Ohio State Innovation Foundation, priority 2013, dated 2022)

How the values were obtained:
LLC tumor-bearing mice = experiment: LLC mouse model of cachexia, hindlimb muscle mass; assay type: in vivo; conditions: LLC tumor-bearing C57BL/6 mice, 50 mg/kg p.o. every other day, day 6 to day 20
Protocol: In another aspect, subcutaneous tumors were established in male C57BL/6 mice (approximately 6 weeks of age; Harlan) by injection of 0.5×10^6 LLC cells into the right flank. Treatment with AR-42 and vehicle was performed as for the C-26 model beginning 6 days after cell injection. In both models, body weights and food consumption were monitored daily and tumor size was measured no less than every two days. Mice were fasted for 2 hours prior to sacrifice, at which time, hind limb muscles, heart, spleen, epididymal fat, and blood were collected and the weights of the solid tissues were measured. Muscle samples were frozen in liquid nitrogen-chilled 2-methylbutane and then stored at −80° C. until analysis.
(§1) To confirm that the anti-cachectic activity of AR-42 was not specific to the C-26 model, it was also evaluated in the LLC model. C57BL/6 mice bearing subcutaneous LLC tumors were treated with AR-42 (50 mg/kg, p.o., every other day) starting on day 6 after tumor cell injection, and continuing until day 20 when hind limb muscles were harvested at sacrifice.
as §1, with “subcutaneous […]” for “subcutaneous”

C-26 tumor-bearing mice = experiment: Forelimb grip strength measurement, C-26 delayed treatment; assay type: in vivo, CD2F1 mice; conditions: all drug-treated groups (start day 6, 10, 12); day 15 and 16
Protocol: Forelimb grip strength was measured mice using a Digital Grip Strength Meter (Columbus Instruments, Columbus, Ohio). Five measurements were taken from each mouse, the average of which was designated as the mouse's grip strength.
To measure forelimb grip strength, each mouse was held by the base of its tail and lowered over the apparatus until its forepaws grasped the pull bar. The mouse was then gently pulled horizontally in a straight line away from the grip meter until the mouse released the bar, and the maximum force attained was recorded. Five measurements were taken from each mouse, the average of which was designated as the mouse's grip strength.

## CC(C)[C@H](C(=O)Nc1ccc(C(=O)NO)cc1)c1ccccc1 [AR-42, (S)—N-hydroxy-4-(3-methyl-2-phenylbutanamido)benzamide]
LLC tumor-bearing mice; vehicle 80.3±4.0%
  tibialis anterior mass, % of non-cachectic control: 93.4±3.9%
LLC tumor-bearing mice; vehicle 81.7±3.7%
  gastrocnemius mass, % of non-cachectic control: 92.2±3.5%
LLC tumor-bearing mice; vehicle 84.4±4.6%
  quadriceps mass, % of non-cachectic control: 93.4±4.8%
C-26 tumor-bearing mice
  forelimb muscle strength (handgrip dynamometry) relative to vehicle-treated control: helped preserve forelimb muscle strength
